From patent publication US20250034127A1, “AUTOPHAGY INDUCING COMPOUNDS AND USES THEREOF, IN PARTICULAR FOR DISEASES OF THE CNS” (Samsara Therapeutics Inc., priority 2021, published 2025)
Like-named read-outs stand apart in the source and are kept apart here.

Legend:
[1] = tested on: primary culture of dopaminergic Tyrosine hydroxylase (TH)-positive neurons; assay: Cellular model of Parkinson's disease (MPTP/MPP+ injury); format: cell-based, rat; details: for decrease in α-syn area per dopaminergic TH positive neuron / increase in the length of the neurite network of dopaminergic TH positive neurons / increase in the number of dopaminergic TH positive neurons: compared to MPP+ injury alone
Text: This model (run by Neuro-Sys SAS, France) is based on a primary culture of dopaminergic Tyrosine hydroxylase (TH)-positive neurons injured with the dopaminergic neurons-specific toxin (DA-toxin) 1-methyl-4-phenyl-1,2,3,6 tetrahydropyridine (MPTP, a prodrug of MPP^+) (Dauer and Przedborski, 2003). Any substances reducing DA-toxin neurotoxicity may be useful as a new therapeutic agent for the treatment or prevention of PD.
Primary culture of mesencephalic neurons: Rat dopaminergic neurons were cultured as described by Visanji et al., 2008 and Callizot et al., 2019. Briefly, pregnant female rat (Wistar) of 15 days of gestation were killed using a deep anesthesia with CO2 chamber and a cervical dislocation. The midbrains obtained from 15-day-old rat embryos (Janvier, France) were dissected under a microscope. The embryonic midbrains will be removed and placed in ice-cold medium of Leibovitz (L15) containing 2% of Penicillin-Streptomycin (PS) and 1% of bovine serum albumin (BSA). The ventral portion of the mesencephalic flexure, a region of the developing brain rich in dopaminergic neurons, was used for the cell preparations.
The midbrains were dissociated by trypsinisation for 20 min at 37° C. (solution at a final concentration of 0.05% trypsin and 0.02% EDTA). The reaction was stopped by the addition of Dulbecco's modified Eagle's medium (DMEM) containing DNAase I grade II (0.5 mg/mL) and 10% of foetal calf serum (FCS). Cells were then mechanically dissociated by 3 passages through a 10 ml pipette. Cells were then centrifuged at 180×g for 10 min at +4° C. on a layer of BSA (3.5%) in L15 medium. The supernatant was discarded, and the cell pellets re-suspended in a defined culture medium consisting of Neurobasal supplemented with B27 (2%), L-glutamine (2 mM) and 2% of PS solution and 10 ng/mL of Brain-derived neurotrophic factor (BDNF) and 1 ng/ml of Glial-Derived Neurotrophic Factor (GDNF). Viable cells were counted in a Neubauer cytometer using the trypan blue exclusion test. The cells were seeded at a density of 40,000 cells/well in 96 well-plates (pre-coated with poly-L-lysine) and maintained in a humidified incubator at 37° C. in 5% CO2/95% air atmosphere. Half of the medium was changed every 2 days with fresh medium. The wells of first and last lines and columns […] (to avoid any edge effect) and were be filled with sterile water.
• i) Pre-incubation. On day 6 of culture, the test compounds were dissolved in PBS or DMSO and incubated for 1 hour before the MPTP exposure. • ii) Injury. One hour after the application of test compound, MPTP was added to a final concentration of 4 μM, diluted in control medium still in presence of compounds/inhibitors for 48 h. Test compounds were tested on one culture in 96-well plate (n=6 culture wells per condition).
Immunostaining: TH and α-Synuclein. 48 Hours after intoxication, the cell culture supernatant was removed, and the cells were fixed by a solution of 4% paraformaldehyde in PBS, pH=7.3 for 20 min at room temperature. The cells were washed twice in PBS, and then permeabilized. Non-specific sites were blocked with a solution of PBS containing 0.1% of saponin and 1% FCS for 15 min at room temperature. The cultures were incubated with: (a) monoclonal anti-Tyrosine Hydroxylase (TH) antibody produced in mouse at dilution of 1/10000 in PBS containing 1% FCS, 0.1% saponin, for 2 hours at room temperature, and (b) polyclonal anti-alpha synuclein (α-synuclein) antibody produced in rabbit at dilution of 1/200 in PBS containing 1% FCS, 0.1% saponin, for 2 h at room temperature.
Automatic computer analysis. For each condition, 20 pictures (representing the whole well area) were automatically taken using ImageXpress® (Molecular Devices) at 10× magnification (20 pictures, for TH and α-synuclein into TH neurons) using the same acquisition parameters. From images, analyses was directly and automatically performed by MetaXpress® (Molecular Devices). […]

[2] = Bioavailability / brain and plasma pharmacokinetics after oral dosing; format: in vivo; details: CD1 mice; for half-life / bioavailability: mouse
Text: The compounds according to the invention have good properties for oral dosing and readily cross the blood brain barrier.

[3] = tested on: primary spinal cord lower motor neurons (MNs) from SOD1 G93A Tg rats; assay: Cellular model of Amyotrophic Lateral Sclerosis (glutamate injury); format: cell-based, rat
Description: Compounds 157 (particularly) preferred), 185 and 196 were selected example compounds if this invention to evaluate in this model. This model (run by Neuro-Sys SAS, France) evaluates the protective effects of test compounds on primary spinal cord lower motor neurons (MNs) from SOD1 G93A Tg rats, after a glutamate injury. The MNs are pre-treated with the test compounds for 1 hour prior to exposure to glutamate, and readouts are measured 24 hours later. This model functions as an in vitro model of Amyotrophic Lateral Sclerosis. […] Any substances which can attenuate one or more of these effects can be considered to have protective effects in the model and may be useful as a new therapeutic agent for the treatment or prevention of ALS.
Genotyping of SOD1 Tg embryos: Pregnant female rat SODIG93A (Sprague Dawley, Taconic), of 14 days of gestation were obtained fromTaconic Bioscience. On the day of the dissection (from pregnant females at 14 days of gestation), a piece of each embryo brain (˜3 mm) was placed in a 2 mL tube free DNase with a new scalpel. The DNA was extracted with the SYBR Green Extract-N-Amp tissue PCR kit (Sigma Aldrich). Briefly, 120 μL of extraction solution was put on each piece of embryo heads. Then, they were incubated for 10 min at room temperature. At the end of this incubation period, the heads were incubated for 5 min at 95° C. Immediately after this last incubation, 100 μL of neutralizing solution was added; each DNA extract was diluted at 1/40 and stored at +4° C. until use. SOD1G93A gene was determined using genomic fragment with human SOD1 primers (5′-[…]-3′ (SEQ ID NO: 1); 5′-[…]-3′ (SEQ ID NO: 2)). The SOD1 primers were diluted at 3 μM in sterile ultrapure water. Briefly, a mix for PCR was prepared with ultrapure water (4 μL per sample), primer at 3 μM (2 μL per sample) and Master Mix (10 μL per sample). In a PCR 96 wells plate, 16 μL of PCR mix was added in each well. 4 μL of each diluted DNA was added according to a plan deposit. The RT-PCR was ran using the CFX96 Biorad RT-PCR system, using the following program: Initial denaturation (95° C., 20 sec)/45 cycles (95° C., 10 sec; 65° C., 10 sec; 72° C., 30 sec)/Melt curve (95° C., 15 sec; 64° C., 1 min; 90° C., 30 sec; 60° C. 15 sec). The amplification plots and melt curves were analyzed with the Biorad software. The results for each sample were compared to negative control (ultrapure water) and to the positive control (DNA from Tg embryos).
Rat spinal cord motor neurons (MNs) were be cultured as described by Wang et al. 2013 and Boussicault et al., 2020. Briefly, pregnant female rats of 14 days gestation (Sprague Dawley; Taconic) were killed using a deep anesthesia with CO2 chamber and a cervical dislocation. Then, fetuses were removed from the uterus and immediately placed in ice-cold L15 Leibovitz medium with a 2% penicillin (10,000 U/ml) and streptomycin (10 mg/ml) solution (PS) and 1% bovine serum albumin (BSA).
Spinal cords were treated for 20 min at 37° C. with a trypsin-EDTA solution at a final concentration of 0.05% trypsin and 0.02% EDTA. The dissociation was stopped by addition of Dulbecco's modified Eagle's medium (DMEM) with 4.5 g/liter of glucose, containing DNAse I grade II (final concentration 0.5 mg/mL) and 10% fetal calf serum (FCS). Cells were mechanically dissociated by three forced passages through the tip of a 10-ml pipette. Cells were then centrifuged at 515×g for 10 min at 4° C. The supernatant was discarded, and the pellet was resuspended in a defined culture medium consisting of Neurobasal medium with a 2% solution of B27 supplement, 2 mmol/liter of L-glutamine, 2% of PS solution, and 10 ng/ml of brain-derived neurotrophic factor (BDNF). Viable cells were counted in a Neubauer cytometer, using the trypan blue exclusion test. The cells were seeded at a density of 20,000 per well in 96-well plates precoated with poly-L-lysine and will be cultured at 37° C. in an air (95%)—CO2 (5%) incubator. […]

[4] = brain, oral dose of 30 mg/kg, read-out: half-life in the brain (converted)
[5] = plasma, oral, 30 mg/kg, read-out: half-life in plasma (converted)

Compound	effects in the in vitro model of PD based on MPP+ injury [1]	decrease in α-syn area per dopaminergic TH positive neuron ([1]; 500 nM, 1 μM and 10 μM) [%]	increase in the length of the neurite network of dopaminergic TH positive neurons ([1]; 500 nM, 1 μM and 10 μM) [%]	increase in the number of dopaminergic TH positive neurons ([1]; 500 nM, 1 μM and 10 μM) [%]	maximum concentration in brain plasma ([2]; oral dose of 30 mg/kg) [ng/mL]	time of maximum concentration in brain plasma ([2]; oral dose of 30 mg/kg) [h]	half-life [2, 4] [h]	bioavailability ([2]; plasma, 30 mg/kg, oral) [%]	half-life [2, 5] [h]	effects in the in vitro model of ALS [3]	abnormal cytoplasmic TDP-43 accumulation resulting from glutamate injury ([3]; 0.1 μM, 0.5 µM and 1 μM)	decrease in α-syn area per dopaminergic TH positive neuron ([1]; 1 μM) [%]	increase in the length of the neurite network of dopaminergic TH positive neurons ([1]; 1 μM) [%]	increase in the number of dopaminergic TH positive neurons ([1]; 1 μM) [%]	increase in neurite network length ([3]; 0.1 μM, 0.5 μM and 1 μM, compared to glutamate injury alone) [%]	abnormal TDP43 accumulation in the cytoplasm resulting from glutamate injury ([3]; 0.1 μM, 0.5 µM, 1 μM and 10 μM)
CCN1CCC(NC(=O)c2csc(-c3cnn(-c4ccccc4)c3)n2)CC1 [Compound 185, N-(1-ethylpiperidin-4-yl)-2-(1-phenyl-1H-pyrazol-4-yl)-1,3-thiazole-4-carboxamide]	positive effects	> 14	> 27	> 22	3457	1	13	100	18	positive effects	fully abolished	–	–	–	–	–
C[C@H]1CN(C(=O)c2csc(-c3cnn(-c4ccccc4)c3)n2)CCN1 [Compound 157, (3S)-3-methyl-1-[2-(1-phenyl-1H-pyrazol-4-yl)-1,3-thiazole-4-carbonyl]piperazine]	positive effects	–	–	–	2153	1.5	1.8	81	1.8	positive effects	–	21	35	27	> 20	fully abolished
